What was measured:
[1] = target: T1, SdCBP (cellobiose phosphorylase from Saccharophagus degradans) (Saccharophagus degradans, UniProt Q21L49); assay: initial rates of phosphorolysis from continuous G1P colorimetric assay, non-linear regression; type: biochemical; settings: no xylose; 5 mM inorganic phosphate, 20 mM MES pH 6.0, 30°C, 10 nM enzyme
T1 construct: gene cep94A; CBP is a homodimer

[2] = target: T1, SdCBP (cellobiose phosphorylase from Saccharophagus degradans); assay: competition assay of cellobiose phosphorolysis at […] xylose; type: biochemical; settings: mixed inhibitor versus cellobiose; 5 mM inorganic phosphate, 20 mM MES pH 6.0, 30°C

T1 sequence (Q21L49 entry or part of it): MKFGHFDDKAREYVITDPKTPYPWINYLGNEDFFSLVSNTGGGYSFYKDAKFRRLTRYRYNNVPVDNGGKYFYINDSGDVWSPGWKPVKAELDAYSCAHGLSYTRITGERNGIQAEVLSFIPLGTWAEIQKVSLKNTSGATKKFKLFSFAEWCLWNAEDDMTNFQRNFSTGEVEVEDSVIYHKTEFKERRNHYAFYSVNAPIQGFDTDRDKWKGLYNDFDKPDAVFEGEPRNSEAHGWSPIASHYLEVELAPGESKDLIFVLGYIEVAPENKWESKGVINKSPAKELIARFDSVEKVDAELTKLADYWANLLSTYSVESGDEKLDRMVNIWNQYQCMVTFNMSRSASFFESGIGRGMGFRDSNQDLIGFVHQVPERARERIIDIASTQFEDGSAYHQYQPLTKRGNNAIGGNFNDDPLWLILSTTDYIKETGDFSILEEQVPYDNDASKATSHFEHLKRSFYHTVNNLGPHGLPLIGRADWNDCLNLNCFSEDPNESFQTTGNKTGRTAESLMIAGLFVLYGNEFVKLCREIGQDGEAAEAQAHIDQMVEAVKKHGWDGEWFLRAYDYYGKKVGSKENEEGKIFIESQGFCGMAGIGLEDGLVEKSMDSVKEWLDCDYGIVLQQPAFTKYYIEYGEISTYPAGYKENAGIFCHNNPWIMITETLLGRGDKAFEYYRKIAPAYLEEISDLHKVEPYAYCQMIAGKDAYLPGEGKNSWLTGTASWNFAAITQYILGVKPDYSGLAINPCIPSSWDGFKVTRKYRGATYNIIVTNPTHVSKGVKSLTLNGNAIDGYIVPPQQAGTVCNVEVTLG

SMILES | KM,app [1] | competition assay of cellobiose phosphorolysis at 0, 2.5 and 5 mM xylose [2]
OC[C@H]1O[C@@H](O[C@H]2[C@H](O)[C@@H](O)C(O)O[C@@H]2CO)[C@H](O)[C@@H](O)[C@@H]1O (some centres unmarked) [cellobiose] | Initial rates of cellobiose phosphorolysis were calculated from the amount of G1P produced | 
OC1OC[C@@H](O)[C@H](O)[C@H]1O (some centres unmarked) [xylose] |  | identifying xylose as a mixed-inhibitor for the cellobiose phosphorolysis reaction
